In patent EP0942754B1, “CONJUGATES USEFUL IN THE TREATMENT OF PROSTATE CANCER” (priority 1996, dated 1998):
pEC50: −log10 of the molar value. Non-standard residues stand in square brackets, D forms with d. Residues, ends and D or L forms follow the SMILES beside them. *: point of attachment. Doxorubicin(3'-N) = COc1cccc2c1C(=O)c1c(O)c3c(c(O)c1C2=O)C[C@@](O)(C(=O)CO)C[C@@H]3O[C@H]1C[C@H](N*)[C@H](O)[C@H](C)O1; Hyp = O=C(O)[C@@H]1C[C@@H](O)CN1; tBuAla = CC(C)(C)C[C@H](N)C(=O)O; Chg = N[C@H](C(=O)O)C1CCCCC1

How the values were obtained:
[1] = target: T1, enzymatically active free PSA (Homo sapiens, UniProt P07288); test: Recognition of oligopeptide-doxorubicin conjugates by free PSA (HPLC, time to 50% cleavage); assay type: biochemical; settings: conjugate added to PSA at a molar ratio of 100 to 1 in PSA digestion buffer; free conjugate tested
T1 construct: enzymatically active free PSA
T1 sequence (P07288 25-261): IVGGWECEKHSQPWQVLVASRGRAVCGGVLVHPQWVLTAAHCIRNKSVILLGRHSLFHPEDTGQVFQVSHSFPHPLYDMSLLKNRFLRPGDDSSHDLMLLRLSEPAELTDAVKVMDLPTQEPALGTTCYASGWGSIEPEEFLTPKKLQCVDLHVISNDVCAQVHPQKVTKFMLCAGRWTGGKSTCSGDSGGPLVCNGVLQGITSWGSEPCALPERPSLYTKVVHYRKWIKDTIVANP
Description: The conjugates prepared as described in Examples 3-5 were individually dissolved in PSA digestion buffer (12 mM tris(hydroxymethyl)-aminomethane pH8.0, 25 mM NaCl, 0.5 mM CaCl2) and the solution added to PSA at a molar ration of 100 to 1. Alternatively, the PSA digestion buffer utilized is 50 mM tris(hydroxymethyl)-aminomethane pH7.4, 140 mM NaCl. The reaction is quenched after various reaction times by the addition of trifluoroacetic acid (TFA) to a final 1% (volume/volume). Alternatively the reaction is quenched with 10mM ZnCl2. The quenched reaction was analyzed by HPLC on a reversed-phase C18 column using an aqueous 0.1%TFA/acetonitrile gradient. […] If no salt is indicated for the conjugate, the free conjugate was tested. The oligopeptide-cytotoxic agent conjugates described in Examples 4 and 5 were assessed for the amount of time (in minutes) required for 50% cleavage of the oligopeptide with enzymatically active free PSA and 50% cleavage occurred in less than 2 hours for those conjugates.

[2] = system: LNCap prostate tumor cells (which express enzymatically active PSA); test: In vitro cytotoxicity of peptidyl derivatives of doxorubicin, Alamar Blue assay, LNCaP cells; assay type: cell-based; settings: 72 HRS incubation, free conjugate tested, read-out: LNCaP Cell Kill in 72 HRS EC 50
Description: (§1) The cytotoxicities of the cleaveable oligopeptide-doxorubicin conjugates, prepared as described in Examples 3 and 4, against a line of cells which is known to be killed by unmodified doxorubicin were assessed with an Alamar Blue assay. Specifically, cell cultures of LNCap prostate tumor cells (which express enzymatically active PSA) or DuPRO cells in 96 well plates was diluted with medium ([…]-α [MEM-α]) containing various concentrations of a given conjugate (final plate well volume of 200µl). The cells were incubated for 3 days at 37°C, 20µl of Alamar Blue is added to the assay well. The cells were further incubated and the assay plates were read on a EL-310 ELISA reader at the dual wavelengths of 570 and 600 nm at 4 and 7 hours after addition of Alamar Blue. Relative percentage viability at the various concentration of conjugate tested was then calculated versus control (no conjugate) cultures. If no salt is indicated, the free conjugate was tested.

DuPRO cells = test: In vitro cytotoxicity of peptidyl derivatives of doxorubicin, Alamar Blue assay, DuPRO cells; assay type: cell-based; settings: DuPRO cells (value in parentheses in the LNCaP column), 72 HRS incubation, read-out: Cell Kill in 72 HRS EC 50 (µM), DuPRO
Description: as §1

Question: How did the “Time to 50% Substrate Cleavage by PSA” value [1] turn out when COc1cccc2c1C(=O)c1c(O)c3c(c(O)c1C2=O)C[C@@](O)(C(=O)CO)C[C@@H]3O[C@H]1C[C@H](NC(=O)[C@H](CC(C)C)NC(=O)[C@H](CO)NC(=O)[C@H](CCC(N)=O)NC(=O)[C@@H](NC(=O)[C@H](CO)NC(=O)[C@H](C)NC(=O)[C@@H]2C[C@@H](O)CN2C(C)=O)C2CCCCC2)[C@H](O)[C@H](C)O1 [Ac-(4-trans-L-Hyp)ASChgQ-SL-DOX (3'), [N-Ac-(4-trans-L-Hyp)]-Ala-Ser-Chg-Gln-Ser-Leu-Dox] (HELM PEPTIDE1{[ac].[Hyp].A.S.[O=C([C@@H](N[*:1])C1CCCCC1)[*:2]].Q.S.L.[COc1cccc2c1C(=O)c1c(O)c3c(c(O)c1C2=O)C[C@@](O)(C(=O)CO)C[C@@H]3O[C@H]1C[C@H](N[*:1])[C@H](O)[C@H](C)O1]}$$$$V2.0) was run?
Answer: The value was 20 min.

Question: What about the pEC50 [2] of the same compound?
Answer: The pEC50 was 5.35.

Question: What about the EC50 (DuPRO cells) of the same compound?
Answer: The EC50 was 90 µM.

Question: What does the source list for COc1cccc2c1C(=O)c1c(O)c3c(c(O)c1C2=O)C[C@@](O)(C(=O)CO)C[C@@H]3O[C@H]1C[C@H](NC(=O)[C@H](CC(C)(C)C)NC(=O)[C@H](CO)NC(=O)[C@H](CCC(N)=O)NC(=O)[C@@H](NC(=O)[C@H](CO)NC(=O)[C@H](C)NC(=O)[C@@H]2C[C@@H](O)CN2C(C)=O)C2CCCCC2)[C@H](O)[C@H](C)O1 [Ac-(4-trans-L-Hyp)ASChgQ-StBuAla-DOX (3')] (Ac-[Hyp]AS[Chg]QS[tBuAla]-{Doxorubicin(3'-N)})?
Answer: Time to 50% Substrate Cleavage by PSA [1]: 25 min; pEC50 [2]: 4.00; EC50 (DuPRO cells): > 100 µM

Question: With Ac-(4-trans-L-Hyp)ASChgQ-SThi-DOX (3') as the compound, how does the “Time to 50% Substrate Cleavage by PSA (Min)” value [1] read?
Answer: Its value is “INSOLUBLE”.

Question: Which “Time to 50% Substrate Cleavage by PSA” value [1] does the source give for “PEG(2)-(4-trans-L-Hyp)ASChgQ-SL-DOX (3')” here?
Answer: The value was 20 min.
